System: Human dermal adult and newborn skin fibroblasts
Experiment: Fibroblast proliferation in SFM and serum-containing media
Assay type: cell-based
Conditions: primary and secondary culture, FIG. 5
Method: Human dermal adult and newborn skin fibroblasts were cultured in a SFM and serum-containing media (DMEM 5% FBS). Collagenase (1 μg/ml) was added to the DMEM serum free media (SFM) and tested on primary and secondary culture of human adult and newborn fibroblasts. In both cases (SFM and DMEM 5%) Collagenase increase cell proliferation up to 2-2.5 fold over the controls.

Collagenase was tested, and the “increase in cell proliferation over the controls” value (DMEM 5% FBS) was 2-2.5 fold and the “increase in cell proliferation over the controls” value (SFM, collagenase 1 μg/ml) was 2-2.5 fold.

— US20070004036A1, “Methods and compositions for keratinocyte culture” (priority 2005, published 2007)
